This is an account of results in US9090651B2, “Helix 12 directed pharmaceutical products” (ENDORECHERCHE, INC., priority 2004, dated 2015).

Each structure is given as a SMILES string. “And” between values parts separate entries of the source, which are not always exact repeats. Equal entries are not always repeated. Where two headings read alike, the source gives them in different places.

The target of test [1] is T1, Human Androgen Receptor (Homo sapiens, UniProt P10275).
T1 sequence (P10275 1-920): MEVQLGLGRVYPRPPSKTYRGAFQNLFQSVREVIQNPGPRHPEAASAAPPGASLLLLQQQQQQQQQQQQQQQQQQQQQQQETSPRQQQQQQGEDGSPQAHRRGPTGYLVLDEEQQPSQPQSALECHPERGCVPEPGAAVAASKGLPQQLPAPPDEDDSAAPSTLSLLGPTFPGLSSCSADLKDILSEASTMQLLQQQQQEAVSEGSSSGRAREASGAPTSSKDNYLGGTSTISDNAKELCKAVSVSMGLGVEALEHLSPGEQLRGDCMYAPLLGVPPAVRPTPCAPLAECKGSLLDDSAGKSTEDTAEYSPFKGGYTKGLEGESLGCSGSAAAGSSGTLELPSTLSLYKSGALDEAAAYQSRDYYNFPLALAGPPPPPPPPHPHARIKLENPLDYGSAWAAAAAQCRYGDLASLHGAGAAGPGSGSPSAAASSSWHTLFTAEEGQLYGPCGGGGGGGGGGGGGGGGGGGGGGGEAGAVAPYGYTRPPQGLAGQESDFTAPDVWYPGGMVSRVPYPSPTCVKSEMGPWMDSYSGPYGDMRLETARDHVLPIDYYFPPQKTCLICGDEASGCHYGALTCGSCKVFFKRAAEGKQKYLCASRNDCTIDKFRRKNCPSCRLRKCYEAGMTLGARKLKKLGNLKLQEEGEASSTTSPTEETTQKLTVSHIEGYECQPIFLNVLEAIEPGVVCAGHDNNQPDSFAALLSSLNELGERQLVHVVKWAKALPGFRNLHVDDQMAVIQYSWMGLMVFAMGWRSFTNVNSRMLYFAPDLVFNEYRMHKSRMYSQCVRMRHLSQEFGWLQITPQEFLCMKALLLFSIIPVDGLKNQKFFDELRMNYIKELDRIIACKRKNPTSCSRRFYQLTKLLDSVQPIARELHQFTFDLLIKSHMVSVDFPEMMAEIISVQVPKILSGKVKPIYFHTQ
Nature of the test: Androgen receptor binding assay (hydroxylapatite, [3H]R1881, cytosol of transfected HEK-293 cells). To be noted: for Androgen Receptor Binding (%) Human RBA R1881 = 100: % RBA=100×IC50 R1881/IC50 compound, transfected cells; for RBA human: Table 4, relative to R1881.

The test system of test [2] is rat seminal vesicle. Nature of the test: Systemic antiandrogenic activity, orchidectomized immature male rats with DHT implant: seminal vesicle weight. Format: in vivo. Conditions: for inhibition in vivo at 0.5 mg: Rattus norvegicus, 168 h. On the procedure: (§1) Immature male rats (Crl:CD(SD)Br) 22 to 24-day old were obtained from Charles-River, Inc. (St-Constant, Quebec, Canada) and housed up to 5 per cage in plastic bins in a temperature (23±1° C.)- and light (12 h light/day, lights on at 7 h15)-controlled environment. The rats were fed rodent chow and tap water ad libitum. The day following their arrival, the animals were orchidectomized (CX) under Isoflurane anesthesia via scrotal route and randomly assigned to groups of 5 animals.
(§2) Compounds were solubilized (when possible) in dimethylsulfoxide (DMSO, 10% final concentration) and administered as suspension in 0.4% methylcellulose. […] One group of animals received the antiandrogen Flutamide as reference. The animals were killed by cervical dislocation under isoflurane anesthesia on the 8th morning following castration. The ventral prostate and seminal vesicles were rapidly dissected and weighed.
W is the weight of the prostate or the seminal vesicle.

Test [3] has as its system ventral prostate, seminal vesicle and levator ani. Nature of the test: In vivo assessment of SARM effect on immature rats. Also noted: species or system rat. How it is done:
as §1
as §2, with “To evaluate the antiandrogenic activity, tested compounds were administered subcutaneously once daily at a dose of 0.5 mg/animal for antiandrogenitic activity or 0.2 mg/animal for androgenic activity for 7 days (SD 1 to 7). Compounds” for “Compounds”

Test [4] relates to rat prostate. Nature of the test: Systemic antiandrogenic activity, orchidectomized immature male rats with DHT implant: prostate weight. It is filed as in vivo. Conditions: for inhibition in vivo at 0.5 mg: Rattus norvegicus, 168 h.
The test system of test [5] is sebaceous glands of the left ear. Nature of the test: Topical antiandrogenic activity, ear sebaceous glands model in the male hamster. It is filed as in vivo. To be noted: Mesocricetus auratus, 336 h, topical on left pinna, read-out: Antiandrogenic activity in Hamster Ear Area Inh Vs Cx (%); for inhibition in vivo at 0.01 mg: 10 μg daily for 14 days; for inhibition in vivo at 0.1 mg: 100 μg daily for 14 days. On the procedure:
The antiandrogenic activity of compounds for topical use was determined using the ear sebaceous glands model in the male hamster.
Male Golden Syrian Hamsters (SYR) of 110-120 g were obtained from Harlan Sprague-Dawley (Madison, USA) and housed up to 2 per plastic cage in a temperature (22±3° C.) and light (12 h light/day, lights on at 7 h15)-controlled environment. The hamsters were fed with Certified Rodent Diet 5002 (pellet) and had access to tap water ad libitum. The animals were acclimatized for at least five days prior to beginning the study. Animals were randomly assigned to groups of eight hamsters. One group of hamsters were castrated under isoflurane-induced anesthesia on the day of dosing initiation (SD 1) and used as control group.
To evaluate the antiandrogenic activity, the tested compounds were applied topically on the inner part of the left ear, once daily, for 14 days. […] For animals of the castrated and intact control groups, one ten-μL vehicle was applied onto the left ear. No solution was applied on the right ear.
On Study Day 15, the hamsters were euthanized by cervical dislocation under isoflurane anesthesia. The left and right ears were collected attached together by the head skin, flat fixed on a paper and then immersed in 10% neutral buffered formalin. Punctures making a circular hole of 6 mm were made on the flat fixed ear in the region where the solution has been applied. These punch-made specimens were collected from each ear. Using a scalpel blade, the collected 6 mm round ear specimens were cut in the middle between the two cartilage ridges. The two equal parts of the ear round specimens were embedded in paraffin. After processing the tissue, the two parts were vertically embedded parallel to each other in such a way that the flat 6 mm area was facing out. From each paraffin block, one section (5 μm thick) was cut and collected on a glass slide. Thus, each slide contained two elongated sections of 6 mm length. Slides were stained with hematoxylin and eosin.
Using the video camera and the lens number X5 of the light microscope, the resulting field appearing on the screen has a length of 0.953 mm. When the first 6 mm long section was examined from the left to the right, the first and second fields were ignored and the third and fourth fields were captured for analysis by the image analyzer. Each field has the length of 0.953 mm. With the help of the screen mouse, the sebaceous glands within the whole field length (0.953 mm) were marked. Also, an area having the length of the whole field and the height between stratum granulosum and the upper edge of the cartilage was drawn.
The total area of the sebaceous glands (μm^2) in each examined field was calculated by the Image Analyser. We also measured the total area, which has the length of 0.953 mm and the height between stratum granulosum and the cartilage. In addition, the percentage of the area occupied by the glands was obtained. Thus, for each ear, two sections were cut and two fields from each section were analyzed. The total of the four readings was averaged and the mean standard error of the mean was calculated by the image analyzer. The results were expressed in μm^2 as the total surface of glands per field and also as percentage of the area occupied by the glands in the tissue.

Test [6] relates to Shionogi mouse mammary carcinoma cells. Nature of the test: Androgenic/antiandrogenic activity on DHT-stimulated Shionogi cell growth. Conditions: for IC50: Mus musculus; for Shionogi VS OH-FLU: Table 4, ratio of Ki hydroxyflutamide versus tested compound. It is filed as cell-based.
The mark [7] stands for this setting: 0.5 mg/day s.c., DHT 1-cm length implant.
The mark [8] stands for this setting: 0.2 mg/day s.c., absence of exogenous androgens, immature rats.
Where [9] appears, read: po, 0.5 mg, per os, read-out: SV RAT Inh % inh (0.5 mg, per os).
Where [10] appears, read: po, 0.5 mg, per os, read-out: Prostate Rat Inh % inh (0.5 mg, per os).
Where [11] appears, read: read-out: Shionogi Antiandrogenic activity IC50 (nM), inhibition of DHT-stimulated Shionogi cell number.
Where [12] appears, read: read-out: Shionogi IC50 (nM), Table 4, inhibition of DHT-stimulated Shionogi cell number.

Take `CC(NC1CCCC1)c1cccc(OCC[C@]23CCC4C5CCC(=O)C=C5C[C@H](C)C4C2CC[C@@]3(C)O)c1` (stereo in doubt) [EM-7216]: the “Androgen Receptor Binding (%) Human RBA R1881 = 100” value in test [1] is listed as 77%. For the same compound, the “inhibition of the stimulated weight of seminal vesicle” value in test [2] (setting [7]) is recorded as “no inhibiting effect”. For the same compound, in test [2] (sc, read-out: IN VIVO Rat s.c. (+DHT) SV % inhibition, s.c., 0.5 mg/animal once daily for 7 days, +DHT), the inhibition in vivo at 0.5 mg was 0%. In test [3] (setting [8]), the “stimulation of the weight of levator ani” value worked out at 238, the “stimulation of the weight of seminal vesicle” value amounted to 200% and the “stimulation of the weight of ventral prostate” value came out at 370%. The “inhibition of the stimulated weight of levator ani” value in test [3] (setting [7]) is “no inhibiting effect”. For the same compound, the “inhibition of the stimulated weight of ventral prostate” value in test [4] (setting [7]) is 28%. Further, in test [4] (sc, read-out: IN VIVO Rat s.c. (+DHT) Prostate % inhibition, s.c., 0.5 mg/animal once daily for 7 days, +DHT), the inhibition in vivo at 0.5 mg is 28%.
Consider `CC(C)CNC(C)(C)c1cccc(OCC[C@]23CCC4C(CCC5CC(=O)CC[C@@]54C)C2CC[C@@H]3O)c1` (some centres unmarked) [EM-6534], for which, in test [1], the “Androgen Receptor Binding (%) Human RBA R1881 = 100” value is recorded as 112% and the RBA human was determined as 112%. Further, the inhibition in vivo at 0.5 mg in test [2] (setting [9]) was found to be 16%. In test [5], the inhibition in vivo at 0.01 mg was 48% and the inhibition in vivo at 0.1 mg turned out to be 84%. The inhibition in vivo at 0.5 mg in test [4] (setting [10]) was 9%. The IC50 in test [6] (setting [11]) worked out at 0.4 nM. Besides, the half-inhibitory concentration (IC50) in test [6] (setting [12]) was found to be 0.23 nM. The “Shionogi VS OH-FLU” value in test [6] is reported as 267.
In turn, `CCCC(NC(CC)CC)c1cccc(OCC[C@]23CCC4C(CCC5CC(=O)CC[C@@]54C)C2CCC3=O)c1` (some centres unmarked) [EM-6842] displayed an RBA human in test [1] of 451%. The inhibition in vivo at 0.5 mg in test [2] (setting [9]) was found to be 27%; in test [4] (setting [10]), 18%. The inhibition in vivo at 0.01 mg in test [5] was determined as 63.8%. Moreover, in test [6] (setting [12]), the IC50 was determined as 0.4 nM. For the same compound, the “Shionogi VS OH-FLU” value in test [6] is 183.
As for `CCCCCN1CCCCC1c1cccc(OCC[C@]23CCC4C(CCC5CC(=O)CC[C@@]54C)C2CC[C@@H]3O)c1` (some centres unmarked) [EM-6494], the “Androgen Receptor Binding (%) Human RBA R1881 = 100” value in test [1] was 63% and 97%. In test [1], the RBA human was 97%. The figures for the inhibition in vivo at 0.5 mg in test [2] (setting [9]) and in test [4] (setting [10]) were 1% and 0%, respectively. The inhibition in vivo at 0.1 mg in test [5] was determined as 68%. The IC50 in test [6] (setting [11]) and in test [6] (setting [12]) was 10.5 nM in each case. The “Shionogi VS OH-FLU” value in test [6] came to 5.4.
For the compound `COC1CCC2C3CCC4CC(=O)CC[C@]4(C)C3CC[C@]12CCOc1cccc(C(C)(C)NCC(C)C)c1` (some centres unmarked) [EM-6628], the RBA human in test [1] was 796%. In addition, the figures for the inhibition in vivo at 0.5 mg in test [2] (setting [9]) and in test [4] (setting [10]) were 0% and 15%, respectively. In test [5], the inhibition in vivo at 0.01 mg was found to be 58.1%. The IC50 in test [6] (setting [12]) came to 5.9 nM. Besides, the “Shionogi VS OH-FLU” value in test [6] is recorded as 14.
